Measured values published in article PMC6135396, “Repurposing antimalarial aminoquinolines and related compounds for treatment of retinal neovascularization” (PLoS ONE, 2018).
Read-outs that look alike come from different tables or passages of the source.

Tests used:
[1] = Hepatic microsome stability, rat; format: in vitro ADME; conditions: liver microsomes, pH 7.4, single phase, read-out: Hepatic microsome stability T1/2
Experimental: Hepatic microsomes stability assays were performed as reported before. […] After preincubation at 37°C for 10 min, enzyme reactions were initiated by adding 120 μL of NADPH-generating system (2 mM NADP^+, 10 mM glucose-6-phosphate, 0.4 U/ml glucose-6-phosphate dehydrogenase, and 5 mM MgCl2) in the presence of 100 mM potassium phosphate buffer (pH 7.4). The final concentration of each model compound used was 1 μM. The microsomal concentrations used were 1.0 mg/mL. Compounds were incubated in microsomes for 0, 5, 15, 30 and 60 min. The reactions were stopped by the addition of ice cold ACN and the reaction mixtures were centrifuged at 10,000g for 10 min before the supernatant was removed for analysis.
Except for the primary assay in the HTS campaign, all experiments were repeated at least three times. Results are expressed as mean ± SEM. The Mann-Whitney test was used to determine statistical significance of the densitometry data of Western blot analysis. Unpaired two-tailed Student’s t-test was performed for the significance of the results of ELISA and in vitro tubule formation assay. ANOVA was used to determine the significance in vivo CNV models using the Tukey post-hoc test for multiple comparisons. […] T1/2 was calculated using the best fit curve resulting from non-linear (human) or linear (mouse and rat) regression analyses using Prism 7.

HRECs = test: Cytotoxicity, ATP-Lite, HRECs; format: cell-based; conditions: tested up to 100 μM
Experimental: (§1) Fa2N-4 immortalized human hepatocytes (Xenotech) or HREC cells were grown to subconfluency in wells of a 96-well plate and exposed to different concentrations of compounds for 24 h after which the cells were washed and the media and compounds replaced. The cells were returned to the incubator for another 24 h. The extent of cell death (cell lysis) was determined by ATP-Lite reagent (Perkin-Elmer).

[2] = Cytotoxicity, ATP-Lite, HRECs; format: cell-based; conditions: human, HREC cells; HRECs; read-out: Cytotoxicity LC50
Experimental: as §1

LogD (pH 7.4) = format: physicochemical
PAMPA permeability = format: in vitro ADME
APJ = biological target: T1, APJ (Homo sapiens, UniProt P35414); test: APJ cAMP assay (primary, cAMP HitHunter, CHO-K1-APJ cells); format: cell-based; set-up: host or cells: CHO-K1 (CHO-K1-APJ / CHO-k1-AGTRL1)
T1 sequence (P35414 1-380): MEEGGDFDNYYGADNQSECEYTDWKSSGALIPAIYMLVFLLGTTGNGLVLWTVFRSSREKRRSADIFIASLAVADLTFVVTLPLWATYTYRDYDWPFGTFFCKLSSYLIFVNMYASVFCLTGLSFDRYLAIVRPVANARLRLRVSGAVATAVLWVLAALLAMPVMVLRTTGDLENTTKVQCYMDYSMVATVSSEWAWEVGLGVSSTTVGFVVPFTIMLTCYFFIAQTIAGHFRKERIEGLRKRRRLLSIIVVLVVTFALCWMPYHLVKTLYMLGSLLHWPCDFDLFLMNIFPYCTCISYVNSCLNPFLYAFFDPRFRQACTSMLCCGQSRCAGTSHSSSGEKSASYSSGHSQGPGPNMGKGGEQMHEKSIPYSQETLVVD
Experimental: To identify small-molecule antagonists of the apelin receptor (APJ) we interrogated the SBP compound file of ~425,000 compounds using CHO-k1-AGTRL1 cells overexpressing human APJ and a competitive immunoassay of intracellular cAMP [59]. The compound file was screened at a concentration of 10 μM. For all 333 plates assayed, the average Z-factor = 0.68 and the average S/B = 8.2, indicating a robust assay performance. […] There were 2550 compounds that met this criterion, representing a hit rate of ~0.6%. […] Included in this hit set was a series of aminoquinolines, exemplified by compound 1 (Fig 1B). […] As part of an initial hit-validation strategy, these compounds and three other commercially available analogs were purchased for further testing. The purity and identify of all compounds were confirmed by NMR and LC-MS, and they were subsequently retested in a battery of cell-based assays of APJ function and counter screens. […] (Fig 1D).
PathHunter™ GPCR Arrestin and cAMP Hunter™ cell lines (DiscoveRx Corp., Fremont, CA) were used to assay G-protein-dependent signaling and β-arrestin recruitment to APJ. CHO-K1 cells stably expressing APJ (CHO-K1-APJ) or AT1 (CHO-K1-AT1) with β-arrestin/β-galactosidase enzyme fragment complementation constructs were maintained in HAM's F-12 medium (Hyclone, Logan, UT) supplemented with 10% FBS, 1X Penicillin-Streptomycin-Glutamine (Invitrogen; Carlsbad, CA), 300 μg/ml hygromycin (EMD Biosciences, San Diego, CA), and 800 μg/ml Geneticin (Cellgro, Manassas, VA). Primary Human Retinal Microvascular Endothelial Cells (HRECs) were purchased from Cell Systems (Kirkland, WA) and maintained in Complete Classic Medium with CultureBoost-R™ (Cell Systems). Parent CHO-K1 cells were obtained from ATCC and maintained in HAM’s F-12 medium supplemented with 10% FBS, and1X Penicillin-Streptomycin-Glutamine (Invitrogen; Carlsbad, CA). All cells were incubated at 37°C (5% CO2, 95% relative humidity) and maintained at less than 70% to 80% confluence (approximately 75,000 cells/cm^2). Cell heterologously expressing APJ or AT1 were not used after 10 passages. HRECs were not used in any experiments after five passages.
All reagents unless otherwise specified are components of the cAMP HitHunter (DiscoveRx) kit. Ligand Buffer + 60 μM Forskolin (Cayman Chemical, Ann Arbor, MI) was made fresh on the day of the experiment and used for the dilution of positive and negative controls as well as all peptides. CHO-K1-APJ cells were dispensed into a 1536-well tissue culture microplate (Corning, Corning, NY) using a Multidrop at a seeding density of 1,000 cells/well and returned to the incubator. The next day, the cell culture media was removed and replaced with 15 μl/well of assay buffer (1X HBSS, 10 mM HEPES) containing anti-cAMP antibody (DiscoveRx). […] Plates were incubated at room temperature in the dark for 3 hours prior to chemiluminescence detection on an EnVision (Perkin Elmer) using a counting time of 1 s/well.

Plasma stability, rat = format: in vitro ADME
[3] = system: choroidal neovascularization (CNV) lesions; test: Laser-induced CNV mouse model; format: in vivo; conditions: for CNV lesion volume vs vehicle control: two injections, choroidal flatmounts, 14 days post-laser

In the case of `CCN(CC)Cc1cc(Nc2ccnc3cc(Cl)ccc23)ccc1O` [AQ, amodiaquine], the half-life at 1 μM [1] is reported as 38.9 min, the “Cytotoxicity to HRECs” value (HRECs) is reported as “Neither ML221 nor AQ were significantly toxic” and the CC50 at 48 h [2] is reported as > 100 µM. The logD (LogD (pH 7.4)) was 2.37, the Papp (PAMPA permeability; Donor pH 5.0, Acceptor pH 7.4, read-out: PAMPA permeability Pe) was 3 ×10⁻⁶ cm/s and the Papp (PAMPA permeability; Donor pH 6.2, Acceptor pH 7.4, read-out: PAMPA permeability Pe) was 9.6 ×10⁻⁶ cm/s. For the same compound, the Papp (PAMPA permeability; pH 7.4, Donor pH 7.4, Acceptor pH 7.4, read-out: PAMPA permeability Pe) was 54 ×10⁻⁶ cm/s, the IC50 (APJ) was 3.45 ± 0.028 µM and the “Mode of APJ antagonism” value (APJ; Ap13 concentration response curves after pre-incubation with AQ, Schild-type analysis) was “non-competitive APJ antagonist”. The Plasma stability (Plasma stability, rat) was 46.3 % remaining at 3 hrs, the “CNV lesion size by optical coherence tomography vs vehicle treated eyes” value ([3]; 14 days post-laser injury, intravitreal AQ 5.0-50.0 μg) was “significantly smaller” and the “CNV lesion volume vs vehicle control” value ([3]; AQ 5.0 μg intravitreal) was “not a statistically significant reduction”. For the same compound, the “CNV lesion volume vs vehicle control” value ([3]; AQ 10.0 μg intravitreal) was “not a statistically significant reduction”, the “CNV lesion volume vs vehicle control” value ([3]; AQ 25.0 μg intravitreal) was “statistically significant decrease” and the “CNV lesion volume vs vehicle control” value ([3]; AQ 50.0 μg intravitreal) was “an even greater decrease”. For the same compound, the “CNV lesion size in confocal images of agglutinin-stained choroidal flatmounts” value ([3]; intravitreal AQ) was “reduction in CNV lesion size at 10μg AQ and higher”.
